The source of these data is ChEMBL document CHEMBL1201862, “PubChem BioAssay data set” (2004).

Active and inactive are the calls of the source.

One assay has as its target Cytochrome P450 3A4 (Homo sapiens, UniProt P08684). The following applies: Potency.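 Note: confirmatory qHTS run detecting inhibitors and substrates of CYP3A4.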
Assay [1] can be described thus: Trypanosoma cruzi growth suppression in host cells – NIH3T3 host cells, beta-gal luminescence, confirmation (AID 2044).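 Note: intracellular parasites grown in NIH/3T3 mouse fibroblasts as host cells; luminescent beta-galactosidase reporter signal from transgenic T. cruzi replicating inside host cells; inhibitors lower the luminescence signal.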 Format: functional, cell-based.
A short description of assay [2]: NIH3T3 cell viability loss – ATP luminescence, mouse fibroblasts, counter-screen, dose response (AID 2010).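 Note: cells exposed to compound for about 90 hours before reading.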 Format: functional, cell-based.
The target of assay [3] is Delta-type opioid receptor (Homo sapiens, UniProt P41143). The assay is described as follows: Counterscreen for agonists of heterodimerization of the mu 1 (OPRM1) and delta 1 (OPRD1) opioid receptors: Luminescence-based cell-based high throughput dose response assay to identify agonists of OPRD1 homodimerization. [Related pubchem assays (depositor defined):AID504326, AID504355, AID504692, AID504904, AID504905]. It counts as functional.
Sequence of Delta-type opioid receptor (P41143 whole entry): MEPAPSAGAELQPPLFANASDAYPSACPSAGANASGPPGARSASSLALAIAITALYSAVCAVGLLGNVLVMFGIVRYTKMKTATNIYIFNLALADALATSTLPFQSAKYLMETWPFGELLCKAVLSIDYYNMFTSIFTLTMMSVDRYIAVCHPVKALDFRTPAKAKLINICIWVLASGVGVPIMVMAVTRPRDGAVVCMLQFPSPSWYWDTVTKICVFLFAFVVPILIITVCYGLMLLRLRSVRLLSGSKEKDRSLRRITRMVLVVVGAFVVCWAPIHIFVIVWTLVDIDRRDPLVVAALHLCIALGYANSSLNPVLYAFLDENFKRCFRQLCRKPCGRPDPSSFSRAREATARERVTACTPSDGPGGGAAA

The next assay deals with Mu-type opioid receptor (Homo sapiens, UniProt P35372). Kind of assay: Counterscreen for agonists of heterodimerization of the mu 1 (OPRM1) and delta 1 (OPRD1) opioid receptors: Luminescence-based cell-based high throughput dose response assay to identify agonists of OPRM1 homodimerization. It counts as functional.
Sequence of Mu-type opioid receptor (P35372 whole entry): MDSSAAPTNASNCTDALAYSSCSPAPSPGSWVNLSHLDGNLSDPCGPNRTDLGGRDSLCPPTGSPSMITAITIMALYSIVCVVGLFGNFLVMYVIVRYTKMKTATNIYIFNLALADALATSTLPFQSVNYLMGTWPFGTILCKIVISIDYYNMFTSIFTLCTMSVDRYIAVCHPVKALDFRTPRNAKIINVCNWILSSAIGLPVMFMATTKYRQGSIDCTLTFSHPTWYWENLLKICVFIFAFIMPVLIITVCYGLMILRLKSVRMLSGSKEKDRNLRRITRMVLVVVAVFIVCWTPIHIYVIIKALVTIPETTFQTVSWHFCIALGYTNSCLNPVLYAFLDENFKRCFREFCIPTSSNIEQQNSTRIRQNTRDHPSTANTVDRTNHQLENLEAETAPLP
The target of assay [4] is 5-hydroxytryptamine receptor 5A (Homo sapiens, UniProt P47898). The assay is described as follows: Counterscreen for agonists of OPRM1-OPRD1 heterodimerization: luminescence-based cell-based high throughput dose response assay to identify agonists of 5-hydroxytryptamine (serotonin) 5A receptor (HTR5A). [Related pubchem assays (depositor defined):AID504326, AID504355, AID504692, AID504904, AID504905]. It counts as functional.
Sequence of 5-hydroxytryptamine receptor 5A (P47898 whole entry): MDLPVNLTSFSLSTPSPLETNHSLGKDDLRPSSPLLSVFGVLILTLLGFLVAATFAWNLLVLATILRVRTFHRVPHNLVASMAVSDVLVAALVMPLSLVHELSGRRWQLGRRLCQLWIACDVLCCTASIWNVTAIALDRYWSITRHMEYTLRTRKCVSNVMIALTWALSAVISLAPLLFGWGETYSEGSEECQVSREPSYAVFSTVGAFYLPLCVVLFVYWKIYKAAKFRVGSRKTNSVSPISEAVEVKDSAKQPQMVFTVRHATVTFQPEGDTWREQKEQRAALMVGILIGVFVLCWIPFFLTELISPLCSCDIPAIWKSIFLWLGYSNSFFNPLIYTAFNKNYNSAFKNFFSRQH

In assay [5] the target is Glyceraldehyde-3-phosphate dehydrogenase (Homo sapiens, UniProt P04406).
Assay [6] concerns the target T1, Short transient receptor potential channel 4 (Mus musculus, UniProt Q9QUQ5).
T1 sequence (Q9QUQ5 whole entry): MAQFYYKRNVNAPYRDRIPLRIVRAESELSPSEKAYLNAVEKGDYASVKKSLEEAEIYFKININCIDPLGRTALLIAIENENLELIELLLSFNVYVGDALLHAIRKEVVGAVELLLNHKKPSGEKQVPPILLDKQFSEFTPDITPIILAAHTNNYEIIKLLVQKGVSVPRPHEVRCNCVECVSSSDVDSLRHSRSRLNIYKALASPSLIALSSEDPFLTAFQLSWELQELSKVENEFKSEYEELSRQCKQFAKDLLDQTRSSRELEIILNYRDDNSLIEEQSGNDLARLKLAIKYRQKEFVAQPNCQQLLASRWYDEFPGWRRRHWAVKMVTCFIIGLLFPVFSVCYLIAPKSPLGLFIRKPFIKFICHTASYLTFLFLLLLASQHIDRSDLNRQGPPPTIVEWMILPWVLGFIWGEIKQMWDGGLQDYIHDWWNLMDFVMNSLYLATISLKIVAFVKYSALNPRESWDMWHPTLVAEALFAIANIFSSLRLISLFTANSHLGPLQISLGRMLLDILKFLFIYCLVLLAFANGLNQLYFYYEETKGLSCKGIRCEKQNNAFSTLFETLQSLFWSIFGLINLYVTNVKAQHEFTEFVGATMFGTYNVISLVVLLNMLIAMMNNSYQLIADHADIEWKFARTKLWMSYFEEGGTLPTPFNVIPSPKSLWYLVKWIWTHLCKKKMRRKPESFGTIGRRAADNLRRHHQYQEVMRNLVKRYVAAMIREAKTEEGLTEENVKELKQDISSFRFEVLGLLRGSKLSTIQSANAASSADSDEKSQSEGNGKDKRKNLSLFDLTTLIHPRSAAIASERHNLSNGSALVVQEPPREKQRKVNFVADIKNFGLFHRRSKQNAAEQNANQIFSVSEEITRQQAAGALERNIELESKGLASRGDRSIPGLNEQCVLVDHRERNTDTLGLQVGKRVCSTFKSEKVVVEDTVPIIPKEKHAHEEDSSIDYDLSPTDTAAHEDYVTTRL
Kind of assay: calcium entry via TRPC4 opening agents – cell-based, HEK293 TRPC4/mu-opioid, Fluo-4 calcium, dose response (AID 434937). It counts as functional.

Assay [7] has as its target T2, Voltage-gated N-type calcium channel alpha-1B subunit/Amyloid beta A4 precursor protein-binding family A member 1 (Homo sapiens, UniProt Q00975+Q02410). It counts as protein assay.
Assay [8] deals with T2, Voltage-gated N-type calcium channel alpha-1B subunit/Amyloid beta A4 precursor protein-binding family A member 1. Format: protein assay. The source holds these as a separate data set.
Assay [9] has as its target Eukaryotic translation initiation factor 4E (Mus musculus, UniProt P63073). Kind of assay: blockers of eIF4G binding by eIF4E – biochemical, TR-FRET, dose response (AID 855).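 Note: potency for disrupting eIF4E binding to eIF4GI seen as loss of FRET.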 It counts as functional.
For assay [10], the target named is DNA dC->dU-editing enzyme APOBEC-3A (Homo sapiens, UniProt P31941). The assay is described as follows: Dose Response confirmation of small molecule APOBEC3A DNA Deaminase Inhibitors via a fluorescence-based single-stranded DNA deaminase assay. [Related pubchem assays (depositor defined):AID493011, AID493024]. Format: functional.
Sequence of DNA dC->dU-editing enzyme APOBEC-3A (P31941 whole entry): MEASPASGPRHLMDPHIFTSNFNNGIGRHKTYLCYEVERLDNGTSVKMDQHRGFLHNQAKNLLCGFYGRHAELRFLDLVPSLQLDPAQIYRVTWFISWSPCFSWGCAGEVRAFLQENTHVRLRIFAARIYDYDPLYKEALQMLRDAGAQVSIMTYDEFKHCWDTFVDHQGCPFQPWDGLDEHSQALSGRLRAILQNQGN
Assay [11] addresses DNA dC->dU-editing enzyme APOBEC-3G (Homo sapiens, UniProt Q9HC16). Format: functional.
Assay [12] addresses T3, DNA repair and recombination protein RAD54-like (Homo sapiens, UniProt Q92698).
T3 sequence (Q92698 whole entry): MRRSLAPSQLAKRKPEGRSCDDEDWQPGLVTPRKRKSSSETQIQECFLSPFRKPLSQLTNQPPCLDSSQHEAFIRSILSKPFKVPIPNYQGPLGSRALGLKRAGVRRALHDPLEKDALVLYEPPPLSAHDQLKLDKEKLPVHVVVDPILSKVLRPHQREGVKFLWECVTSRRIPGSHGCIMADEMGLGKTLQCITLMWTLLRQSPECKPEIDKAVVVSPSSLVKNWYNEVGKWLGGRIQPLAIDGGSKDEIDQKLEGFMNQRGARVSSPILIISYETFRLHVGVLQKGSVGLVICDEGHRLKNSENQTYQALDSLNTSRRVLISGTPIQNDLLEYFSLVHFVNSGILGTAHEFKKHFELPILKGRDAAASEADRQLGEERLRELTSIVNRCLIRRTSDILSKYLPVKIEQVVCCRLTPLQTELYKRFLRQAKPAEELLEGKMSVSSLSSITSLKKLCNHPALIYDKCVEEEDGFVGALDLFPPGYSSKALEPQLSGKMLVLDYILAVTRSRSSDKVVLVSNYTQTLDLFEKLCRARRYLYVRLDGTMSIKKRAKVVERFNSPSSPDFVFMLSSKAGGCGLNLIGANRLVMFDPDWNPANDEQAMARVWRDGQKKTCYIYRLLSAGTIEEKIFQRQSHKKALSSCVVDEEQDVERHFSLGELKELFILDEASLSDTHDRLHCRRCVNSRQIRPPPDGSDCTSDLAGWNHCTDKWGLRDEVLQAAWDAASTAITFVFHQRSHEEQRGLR
The assay is described as follows: RAD54 Holliday junction migration blockers – biochemical, fluorescence, cherry-picked samples, dose series, confirmation (AID 651657). It counts as functional.

Assay [13] concerns HEK293. Kind of assay: inhibition of NOD1-driven NF-kB reporter – cell-based, luminescence, uHTS, primary screen (AID 1578). Format: functional. The note with it: Homo sapiens.
The subject of assay [14] is HEK293. Kind of assay: cells. Format: functional, cell-based. The following applies: Homo sapiens.
In assay [15] the test system is HEK293. Kind of assay: cells. Format: functional, cell-based. The note with it: Homo sapiens. This is another data set of the same source.
The target in assay [16] is Nucleotide-binding oligomerization domain-containing protein 2 (Homo sapiens, UniProt Q9HC29). Kind of assay: inhibition of NOD2-driven NF-kB reporter – cell-based, luminescence, uHTS, HEK293 (AID 1566). Format: functional.
Assay [17] concerns HEK293. The assay is described as follows: NOD2 signaling inhibitors in MDP-stimulated cells, cell-based, uHTS, luminescence (AID 2001). It counts as functional. The note with it: Homo sapiens.
The subject of assay [18] is HEK293. The assay is described as follows: cells. The following applies: Homo sapiens. It counts as functional, cell-based. The source holds these as a separate data set.
Another assay has as its system INS1. Kind of assay: INS-1E survival protection against cytokine death – cell-based, luminescence, retest, dose response (AID 449756).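 Note: cell death triggered by IL-1 beta plus TNF-alpha plus IFN-gamma mixture; protective hits raise ATP signal compared with cytokine alone wells.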 Format: functional. The following applies: Rattus norvegicus.
Assay [19] addresses T4, Heat shock factor protein 1 (Mus musculus, UniProt P38532).
T4 sequence (P38532 whole entry): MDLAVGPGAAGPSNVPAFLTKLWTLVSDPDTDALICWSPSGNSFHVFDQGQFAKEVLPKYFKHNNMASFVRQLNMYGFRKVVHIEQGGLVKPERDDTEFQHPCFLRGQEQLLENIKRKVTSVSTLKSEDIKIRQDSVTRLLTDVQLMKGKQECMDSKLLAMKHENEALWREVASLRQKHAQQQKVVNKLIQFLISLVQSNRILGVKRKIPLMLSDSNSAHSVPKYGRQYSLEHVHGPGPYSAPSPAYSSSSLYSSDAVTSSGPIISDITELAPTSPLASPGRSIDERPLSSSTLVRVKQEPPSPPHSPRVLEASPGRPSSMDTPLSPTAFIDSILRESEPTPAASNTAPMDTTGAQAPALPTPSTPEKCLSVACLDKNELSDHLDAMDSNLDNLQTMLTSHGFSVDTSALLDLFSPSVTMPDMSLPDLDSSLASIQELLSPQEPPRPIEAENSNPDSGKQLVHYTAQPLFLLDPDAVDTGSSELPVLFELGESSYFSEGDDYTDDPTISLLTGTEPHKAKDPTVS
The assay is described as follows: enhancement of HSF1-driven luciferase signal – cell-based, NIH3T3, luminescence, dose retest, confirmation (AID 435004).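 Note: stress induced by proteasome inhibitor MG132 added 30 min after compound; luciferase reporter driven by HSF1 response element in NIH3T3 cells; actives raise luminescence as potentiators of the MG132 stress response.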 Format: functional.

Sequence of Cytochrome P450 3A4 (P08684 whole entry): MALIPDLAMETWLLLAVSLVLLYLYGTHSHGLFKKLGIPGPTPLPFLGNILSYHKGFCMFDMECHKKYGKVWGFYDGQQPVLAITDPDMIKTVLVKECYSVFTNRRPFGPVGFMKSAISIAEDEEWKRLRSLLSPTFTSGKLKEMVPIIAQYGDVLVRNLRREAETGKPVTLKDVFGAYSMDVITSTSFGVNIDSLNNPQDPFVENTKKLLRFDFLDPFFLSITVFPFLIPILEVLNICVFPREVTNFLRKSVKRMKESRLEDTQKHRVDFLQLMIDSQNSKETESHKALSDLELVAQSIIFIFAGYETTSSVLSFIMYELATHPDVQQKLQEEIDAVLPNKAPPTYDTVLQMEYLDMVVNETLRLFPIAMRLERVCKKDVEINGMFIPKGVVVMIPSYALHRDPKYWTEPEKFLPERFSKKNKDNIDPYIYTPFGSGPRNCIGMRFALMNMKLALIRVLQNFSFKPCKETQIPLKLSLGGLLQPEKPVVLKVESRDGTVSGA
T2 sequence (Q00975 whole entry): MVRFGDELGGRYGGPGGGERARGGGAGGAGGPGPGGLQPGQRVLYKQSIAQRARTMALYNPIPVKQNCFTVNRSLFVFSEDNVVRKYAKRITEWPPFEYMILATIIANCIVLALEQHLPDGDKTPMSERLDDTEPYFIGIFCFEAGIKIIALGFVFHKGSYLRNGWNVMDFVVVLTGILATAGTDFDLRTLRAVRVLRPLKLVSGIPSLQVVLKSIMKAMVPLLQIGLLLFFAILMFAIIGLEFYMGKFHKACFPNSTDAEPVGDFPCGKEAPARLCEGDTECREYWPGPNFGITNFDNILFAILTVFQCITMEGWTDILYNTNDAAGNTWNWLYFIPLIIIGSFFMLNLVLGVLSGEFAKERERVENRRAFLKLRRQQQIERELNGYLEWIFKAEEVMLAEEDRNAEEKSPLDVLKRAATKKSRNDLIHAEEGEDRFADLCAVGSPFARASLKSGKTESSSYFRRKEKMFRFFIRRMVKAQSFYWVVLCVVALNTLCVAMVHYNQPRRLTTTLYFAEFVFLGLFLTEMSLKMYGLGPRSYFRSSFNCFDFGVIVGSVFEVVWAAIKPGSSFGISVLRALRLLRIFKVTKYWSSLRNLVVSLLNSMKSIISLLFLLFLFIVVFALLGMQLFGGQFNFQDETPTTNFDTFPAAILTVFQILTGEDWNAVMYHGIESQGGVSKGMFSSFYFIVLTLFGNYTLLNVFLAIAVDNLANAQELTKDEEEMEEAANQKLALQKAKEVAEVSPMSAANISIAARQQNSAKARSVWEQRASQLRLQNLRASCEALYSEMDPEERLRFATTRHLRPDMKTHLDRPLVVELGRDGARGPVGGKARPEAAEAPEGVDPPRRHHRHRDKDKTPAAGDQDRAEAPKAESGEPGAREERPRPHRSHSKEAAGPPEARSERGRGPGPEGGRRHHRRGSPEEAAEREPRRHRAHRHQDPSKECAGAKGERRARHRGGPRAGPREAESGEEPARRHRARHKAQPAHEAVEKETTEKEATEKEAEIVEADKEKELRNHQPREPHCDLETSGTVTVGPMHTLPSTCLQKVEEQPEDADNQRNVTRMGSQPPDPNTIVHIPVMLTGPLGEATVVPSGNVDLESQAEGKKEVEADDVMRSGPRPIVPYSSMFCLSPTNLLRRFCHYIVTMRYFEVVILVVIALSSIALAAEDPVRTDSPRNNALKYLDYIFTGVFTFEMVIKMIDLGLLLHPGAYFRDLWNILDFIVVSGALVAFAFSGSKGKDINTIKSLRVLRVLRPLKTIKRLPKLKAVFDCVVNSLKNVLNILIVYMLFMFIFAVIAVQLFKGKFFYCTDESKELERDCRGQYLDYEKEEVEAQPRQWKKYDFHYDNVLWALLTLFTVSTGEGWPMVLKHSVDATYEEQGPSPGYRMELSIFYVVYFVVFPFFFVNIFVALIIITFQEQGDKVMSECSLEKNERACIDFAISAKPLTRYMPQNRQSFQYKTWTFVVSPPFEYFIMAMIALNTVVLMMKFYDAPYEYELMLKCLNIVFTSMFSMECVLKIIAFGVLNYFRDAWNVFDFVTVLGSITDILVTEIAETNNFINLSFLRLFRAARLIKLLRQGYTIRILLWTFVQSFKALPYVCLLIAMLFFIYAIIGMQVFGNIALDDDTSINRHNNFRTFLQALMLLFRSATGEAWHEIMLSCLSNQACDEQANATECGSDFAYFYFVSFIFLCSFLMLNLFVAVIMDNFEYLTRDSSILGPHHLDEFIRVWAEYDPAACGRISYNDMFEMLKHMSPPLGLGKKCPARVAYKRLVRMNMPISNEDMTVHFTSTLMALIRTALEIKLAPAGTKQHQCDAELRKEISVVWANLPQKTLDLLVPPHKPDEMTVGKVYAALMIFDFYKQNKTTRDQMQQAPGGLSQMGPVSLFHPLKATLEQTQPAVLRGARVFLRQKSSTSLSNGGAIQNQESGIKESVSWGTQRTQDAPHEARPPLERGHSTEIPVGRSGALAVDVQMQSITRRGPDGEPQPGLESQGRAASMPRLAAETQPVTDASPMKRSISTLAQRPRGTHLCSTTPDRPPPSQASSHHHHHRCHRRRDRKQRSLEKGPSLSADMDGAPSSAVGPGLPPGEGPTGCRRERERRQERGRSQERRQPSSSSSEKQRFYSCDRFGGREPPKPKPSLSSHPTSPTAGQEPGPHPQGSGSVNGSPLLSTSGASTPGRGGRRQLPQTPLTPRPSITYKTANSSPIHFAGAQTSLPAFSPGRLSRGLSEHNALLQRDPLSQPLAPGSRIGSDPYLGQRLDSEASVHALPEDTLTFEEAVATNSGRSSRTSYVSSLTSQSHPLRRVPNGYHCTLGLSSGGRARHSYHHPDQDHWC
T2 sequence (Q02410 whole entry): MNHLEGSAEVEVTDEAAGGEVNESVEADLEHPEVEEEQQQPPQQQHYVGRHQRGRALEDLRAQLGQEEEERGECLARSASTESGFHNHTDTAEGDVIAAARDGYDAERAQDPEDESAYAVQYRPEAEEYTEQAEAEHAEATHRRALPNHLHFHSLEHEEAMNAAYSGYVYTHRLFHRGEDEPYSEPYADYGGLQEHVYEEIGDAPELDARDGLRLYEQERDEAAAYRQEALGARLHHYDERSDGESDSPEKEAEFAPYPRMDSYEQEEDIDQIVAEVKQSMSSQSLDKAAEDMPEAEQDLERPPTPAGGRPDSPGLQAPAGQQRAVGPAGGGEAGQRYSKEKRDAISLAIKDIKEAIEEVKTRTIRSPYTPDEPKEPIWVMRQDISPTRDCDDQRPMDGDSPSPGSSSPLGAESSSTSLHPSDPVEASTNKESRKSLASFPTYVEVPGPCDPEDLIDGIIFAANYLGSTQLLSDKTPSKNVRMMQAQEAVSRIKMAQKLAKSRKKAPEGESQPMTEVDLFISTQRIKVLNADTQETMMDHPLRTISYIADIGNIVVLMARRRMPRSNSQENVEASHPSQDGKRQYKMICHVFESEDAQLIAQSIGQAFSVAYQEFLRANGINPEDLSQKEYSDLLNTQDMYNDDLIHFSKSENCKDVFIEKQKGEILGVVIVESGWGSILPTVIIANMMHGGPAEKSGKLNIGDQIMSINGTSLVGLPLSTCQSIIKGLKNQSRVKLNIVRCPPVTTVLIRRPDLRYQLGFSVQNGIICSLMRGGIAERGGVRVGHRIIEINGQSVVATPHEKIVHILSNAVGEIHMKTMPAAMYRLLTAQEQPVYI

As to `Cc1ccc(N)cc1Cl`, at Cytochrome P450 3A4, the AC50 is 12.6 µM (inconclusive).
For the compound `CCOC(=O)C1(CCOc2ccccc2)CCN(Cc2cccn2-c2cccnc2)CC1`, the EC50 in [1] was 2.94 µM (active); in assay [2], > 30 µM (not active); in [3] it was > 92.5 µM (inactive); on Mu-type opioid receptor, 17.5 µM (inactive); in [4] it was > 92.5 µM (inactive).
`COc1ccc(N2CCN(C3=C(Cl)C(=O)N(c4cccc(OC)c4)C3=O)CC2)cc1`: in [5], the IC50 is > 50 µM (inconclusive).
On to `CCC1(C)CC(CCNCc2ccc(N(C)C)cc2)(c2ccc(F)cc2)CCO1` (configuration not stated), for which the EC50 in [6] was 5.96 µM (active); in assay [3], > 92.3 µM (inactive); on Mu-type opioid receptor, 29.2 µM (inactive); in assay [4] it was > 92.3 µM (inactive).
`O=C(CSc1ccc(Cl)cc1)Nc1ccc(-c2nc3ccccc3[nH]2)cc1`: the EC50 (in [3]; on Mu-type opioid receptor; in [4]) was > 92.5 µM (inactive) in each case.
For the compound `OCC1(CCc2ccccc2)CCN(Cc2ccccc2Cl)CC1`, the results for the EC50 (in assay [3]; at Mu-type opioid receptor; in assay [4]) were > 92.4 µM (inactive), 67.6 µM (inactive) and > 92.4 µM (inactive), respectively.
With `O=C(O)c1cc(-c2ccco2)nn1-c1ccc(Cl)cc1`, the concentration for half-maximal inhibition (IC50) was 5.13 µM (active) in [7], 22.1 µM (active) in assay [8] and 50 µM (inactive) in assay [9].
For the compound `CCC1=C2CC[C@H]3C(=O)N(CC(=O)OC)C(=O)[C@H]3[C@H]2[C@@]2(C)C(=O)N(CC3CC3)C(=O)N2C1=O`, the AC50 on Cytochrome P450 3A4 was 7.94 µM (inconclusive).
For `CC(C)c1ccc(/C=C2\SC(=O)N(CC(=O)NC3CCS(=O)(=O)C3)C2=O)cc1` (configuration not stated), the half-inhibitory concentration (IC50) in [7] was 12.4 µM (active); in [8], > 50 µM (inactive).
Regarding `Cc1ccccc1/C=C/c1cc[n+](C)cc1`, the results for the IC50 in [10] and in [11] were 2.33 µM (active) and 3.38 µM (active), respectively.
With `C[C@H]1C[C@]2(O[C@@H]2C)C(=O)O[C@@H]2CCN(C)C/C=C(/COC(=O)[C@]1(C)O)C2=O`, at Cytochrome P450 3A4, the AC50 was 25.1 µM (inconclusive).
`Cc1cc(C)nc(NC(=S)Nc2ccc(Br)cc2Cl)c1`: the IC50 in assay [7] was 5.57 µM (active); in assay [8], > 50 µM (inactive).
For the compound `CCCn1c(C)nc2c(NCCCCN(CC)CC)nc(C)nc21`, the AC50 on Cytochrome P450 3A4 was 20 µM (inconclusive).
For the compound `Cc1c(CN(C)C)c2c(n1C)C(=O)c1ccc(Br)cc1-2`, the AC50 in [12] is 11.8 µM (active).
On to `CCN(CC)c1ccc(S(=O)(=O)N2CCOCC2)cc1NC(=O)CN1CCc2ccccc2C1`, for which the EC50 in the assay with HEK293 [13] was 10.5 µM (active); in assay [16], 11.5 µM (active). Moreover, the IC50 in the assay on HEK293 [14] is 7.07 µM (active); with HEK293 [15], > 20 µM (inactive); with HEK293 [17] it was 11.5 µM (inactive); in the assay on HEK293 [18], > 20 µM (inactive).
With `FC(F)(F)c1cnc(NN=C(S)Nc2ccccc2Cl)c(Cl)c1`, the EC50 with HEK293 [13] is 6.06 µM (active). Further, the IC50 in the assay with HEK293 [14] is 6.49 µM (active); in the assay with HEK293 [15], 15.1 µM (active); in the assay on HEK293 [17] it was 6.98 µM (inactive); with HEK293 [18], > 20 µM (inactive). Moreover, the AC50 in the assay with INS1 is 7.04 µM (active).
For `FC(F)(F)c1cnc(NNC(=S)Nc2ccccc2Cl)c(Cl)c1`, the EC50 in assay [16] was 11 µM (active).
As for `Cc1ccc(C)c(NC(=O)C2CC(O)CN2C(=O)Oc2ccccc2)c1` (configuration not stated), the IC50 in [10] was 10 µM (active); in assay [11], 10.4 µM (active). For the same compound, the EC50 in assay [19] was > 260 µM (inactive).
With `O=C(NCCO)c1cc(-c2ccc(F)cc2F)n[nH]1`, the IC50 in assay [5] is > 10 µM (inconclusive).
